Several values for one entry are separate records, joined by “and”; a condition that tells them apart may be missing. Equal values may be shown once. Inconclusive results and toxic doses are left out. How the source made its calls: active means survival T/C of 150% or more; inactive means T/C below 125% in these data.
System: BDF1 mice, P388 leukemia ip, median survival T/C
Assay: NCI In Vivo Anticancer Drug Screen. Data for tumor model P388 Leukemia (intraperitoneal) in B6D2F1 (BDF1) mice
Details: endpoint: median survival time, higher = longer survival
How it was run: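 Compound-treated tumour-bearing mice were compared with vehicle-treated controls. Survival was recorded, and the value is the treated-group measurement divided by the control-group measurement (T/C).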

Measured: T/C

N=[N+]=CC(=O)OCC(N)C(=O)O (stereo unspecified)
inactive: dose: 10.0 mg/kg/injection, schedule: Q01DX010 (ip), vehicle: water 120 % of control | dose: 15.0 mg/kg/injection, schedule: Q01DX010 (ip), vehicle: water 120 % of control | dose: 25.0 mg/kg/injection, schedule: Q01DX010 (ip), vehicle: saline 115 % of control
active: dose: 3.13 mg/kg/injection, schedule: Q01DX010 (ip), vehicle: saline 150 % of control | dose: 6.25 mg/kg/injection, schedule: Q01DX010 (ip), vehicle: saline 150 % of control and 165 % of control | dose: 12.5 mg/kg/injection, schedule: Q01DX010 (ip), vehicle: saline 195 % of control and 200 % of control

Cn1c(=O)n(C)c2ccccc21
inactive: dose: 15.0 mg/kg/injection, schedule: Q01DX001 (ip), vehicle: saline 90 % of control | dose: 25.0 mg/kg/injection, schedule: Q01DX001 (ip), vehicle: saline with Tween-80 90 % of control and 100 % of control | dose: 25.0 mg/kg/injection, schedule: Q01DX001 (ip), vehicle: saline 90 % of control | dose: 35.0 mg/kg/injection, schedule: Q01DX001 (ip), vehicle: saline 100 % of control | dose: 50.0 mg/kg/injection, schedule: Q01DX001 (ip), vehicle: saline with Tween-80 104 % of control | dose: 50.0 mg/kg/injection, schedule: Q01DX001 (ip), vehicle: saline 100 % of control | dose: 75.0 mg/kg/injection, schedule: Q01DX001 (ip), vehicle: saline 90 % of control | dose: 100.0 mg/kg/injection, schedule: Q01DX001 (ip), vehicle: saline with Tween-80 90 % of control and 95 % of control | dose: 100.0 mg/kg/injection, schedule: Q04DX003 (ip), vehicle: Klucel (hydroxypropylcellulose) (HPC) 95 % of control | dose: 200.0 mg/kg/injection, schedule: Q04DX003 (ip), vehicle: Klucel (hydroxypropylcellulose) (HPC) 91 % of control | dose: 400.0 mg/kg/injection, schedule: Q04DX003 (ip), vehicle: Klucel (hydroxypropylcellulose) (HPC) 91 % of control

COC(CN(C)CC(OC)OC)OC
inactive: dose: 100.0 mg/kg/injection, schedule: Q01DX009 (ip), vehicle: saline 90 % of control | dose: 200.0 mg/kg/injection, schedule: Q01DX009 (ip), vehicle: saline 100 % of control | dose: 400.0 mg/kg/injection, schedule: Q01DX009 (ip), vehicle: saline 100 % of control

OC(C(c1ccccc1)N1CCCCC1)C(O)(c1ccccc1)c1ccccc1 (stereo unspecified)
inactive: dose: 100.0 mg/kg/injection, schedule: Q01DX001 (ip), vehicle: saline sonified 100 % of control | dose: 200.0 mg/kg/injection, schedule: Q01DX001 (ip), vehicle: saline sonified 105 % of control | dose: 400.0 mg/kg/injection, schedule: Q01DX001 (ip), vehicle: saline sonified 100 % of control

Cc1ccc(C(=O)NCCCOc2ccc([N+](=O)[O-])cc2Cl)cc1S(=O)(=O)F
inactive: dose: 50.0 mg/kg/injection, schedule: Q01DX009 (ip), vehicle: saline with Tween-80 98 % of control | dose: 100.0 mg/kg/injection, schedule: Q01DX009 (ip), vehicle: saline with Tween-80 114 % of control | dose: 100.0 mg/kg/injection, schedule: Q04DX003 (ip), vehicle: saline with Tween-80 99 % of control | dose: 200.0 mg/kg/injection, schedule: Q01DX009 (ip), vehicle: saline with Tween-80 98 % of control | dose: 200.0 mg/kg/injection, schedule: Q04DX003 (ip), vehicle: saline with Tween-80 99 % of control | dose: 400.0 mg/kg/injection, schedule: Q01DX009 (ip), vehicle: saline with Tween-80 107 % of control | dose: 400.0 mg/kg/injection, schedule: Q04DX003 (ip), vehicle: saline with Tween-80 90 % of control

CCc1ccc(/C=C/c2ccc(O)c3ncccc23)[n+](C)c1
inactive: dose: 0.74 mg/kg/injection, schedule: Q01DX009 (ip), vehicle: saline 100 % of control | dose: 1.1 mg/kg/injection, schedule: Q01DX009 (ip), vehicle: saline 109 % of control | dose: 1.7 mg/kg/injection, schedule: Q01DX009 (ip), vehicle: Klucel (hydroxypropylcellulose) (HPC) 108 % of control | dose: 4.1 mg/kg/injection, schedule: Q01DX009 (ip), vehicle: Klucel (hydroxypropylcellulose) (HPC) 122 % of control | dose: 8.0 mg/kg/injection, schedule: Q04DX003 (ip), vehicle: saline 122 % of control
active: dose: 1.7 mg/kg/injection, schedule: Q01DX009 (ip), vehicle: saline 150 % of control | dose: 2.6 mg/kg/injection, schedule: Q01DX009 (ip), vehicle: saline 160 % of control | dose: 8.0 mg/kg/injection, schedule: Q01DX009 (ip), vehicle: Klucel (hydroxypropylcellulose) (HPC) 150 % of control | dose: 8.0 mg/kg/injection, schedule: Q01DX009 (ip), vehicle: saline with Tween-80 170 % of control | dose: 10.56 mg/kg/injection, schedule: Q01DX009 (ip), vehicle: saline with Tween-80 154 % of control | dose: 16.0 mg/kg/injection, schedule: Q01DX009 (ip), vehicle: Klucel (hydroxypropylcellulose) (HPC) 170 % of control | dose: 16.0 mg/kg/injection, schedule: Q01DX009 (ip), vehicle: saline with Tween-80 159 % of control and 179 % of control | dose: 16.5 mg/kg/injection, schedule: Q01DX009 (ip), vehicle: Klucel (hydroxypropylcellulose) (HPC) 160 % of control and 166 % of control | dose: 24.0 mg/kg/injection, schedule: Q01DX009 (ip), vehicle: saline with Tween-80 158 % of control | dose: 25.0 mg/kg/injection, schedule: Q01DX009 (ip), vehicle: Klucel (hydroxypropylcellulose) (HPC) 171 % of control and 185 % of control | dose: 32.0 mg/kg/injection, schedule: Q01DX009 (ip), vehicle: saline with Tween-80 179 % of control

— PubChem BioAssay AID328 (DTP/NCI, 2004)
